Values belong to the compound of their own block, whether it stands above or below them.
Experiments:
Hepatitis B virus = test: Antiviral activity against HBV infected in human HepG2.2.15 cells assessed as inhibition of HBsAg level incubated for 6 days by microplate-based chemiluminescence immunoassay; type: functional, organism-based; conditions: HepG2 2.2.15, 144 h
HepG2 2.2.15 = test: Cytotoxicity against human HepG2.2.15 cells by Cell-titer Glo luminescent assay; type: functional
[1] = Clearance in CD-1 mouse liver microsomes at 0.3 uM pre-incubated for 10 mins followed by NADPH addition incubated for 60 mins by LC-MS/MS analysis; type: ADME, Microsome; conditions: time 70 min, read-out: CLH
[2] = Clearance in human liver microsomes at 0.3 uM pre-incubated for 10 mins followed by NADPH addition incubated for 60 mins by LC-MS/MS analysis; type: ADME, Microsome; conditions: time 70 min, read-out: CLH
[3] = Clearance in CD-1 mouse at 2 mg/kg,iv measured at 0.083 to 24 hrs post administration by LC-MS/MS analysis; type: ADME, organism-based; conditions: in vivo, time 0.083-24 hrs
[4] = Half life in CD-1 mouse at 10 mg/kg,po measured at 0.083 to 24 hrs post administration by LC-MS/MS analysis; type: ADME, organism-based; conditions: in vivo, time 0.083-24 hrs
[5] = Cmax in CD-1 mouse at 10 mg/kg,po measured at 0.083 to 24 hrs post administration by LC-MS/MS analysis; type: ADME, organism-based; conditions: in vivo, time 0.083-24 hrs
[6] = AUCinfinity in CD-1 mouse at 10 mg/kg,po measured at 0.083 to 24 hrs post administration by LC-MS/MS analysis; type: ADME, organism-based; conditions: in vivo, time 0.083-24 hrs
[7] = Oral bioavailability in CD-1 mouse at 10 mg/kg measured at 0.083 to 24 hrs by LC-MS/MS analysis; type: ADME, organism-based; conditions: in vivo, time 0.083-24 hrs
[8] = Clearance in Sprague-Dawley rat at 2 mg/kg,iv measured at 0.083 to 24 hrs post administration by LC-MS/MS analysis; type: ADME, organism-based; conditions: in vivo, time 0.083-24 hrs
[9] = Half life in Sprague-Dawley rat at 10 mg/kg,po measured at 0.083 to 24 hrs post administration by LC-MS/MS analysis; type: ADME, organism-based; conditions: Sprague-Dawley, in vivo, time 0.083-24 hrs
[10] = Cmax in Sprague-Dawley rat at 10 mg/kg,po measured at 0.083 to 24 hrs post administration by LC-MS/MS analysis; type: ADME, organism-based; conditions: Sprague-Dawley, in vivo, time 0.083-24 hrs, read-out: Cmax
[11] = AUCinfinity in Sprague-Dawley rat at 10 mg/kg,po measured at 0.083 to 24 hrs post administration by LC-MS/MS analysis; type: ADME, organism-based; conditions: in vivo, time 0.083-24 hrs
[12] = Oral bioavailability in Sprague-Dawley rat at 10 mg/kg measured at 0.083 to 24 hrs by LC-MS/MS analysis; type: ADME, organism-based; conditions: in vivo, time 0.083-24 hrs
[13] = Apparent volume of distribution at steady state in CD-1 mouse at 2 mg/kg,iv measured at 0.083 to 24 hrs post administration by LC-MS/MS analysis; type: ADME, organism-based; conditions: in vivo, time 0.083-24 hrs, read-out: Vdss(app)
[14] = Half life in CD-1 mouse at 2 mg/kg,iv measured at 0.083 to 24 hrs post administration by LC-MS/MS analysis; type: ADME, organism-based; conditions: in vivo, time 0.083-24 hrs
[15] = Cmax in CD-1 mouse at 2 mg/kg,iv measured at 0.083 to 24 hrs post administration by LC-MS/MS analysis; type: ADME, organism-based; conditions: in vivo, time 0.083-24 hrs
[16] = AUCinfinity in CD-1 mouse at 2 mg/kg,iv measured at 0.083 to 24 hrs post administration by LC-MS/MS analysis; type: ADME, organism-based; conditions: in vivo, time 0.083-24 hrs
[17] = Drug accumulation in CD-1 mouse plasma assessed as fold change in drug uptake at 10 mg/kg,po measured at 0.083 to 24 hrs post administration by LC-MS/MS analysis; type: ADME, organism-based; conditions: in vivo, time 0.083-24 hrs
[18] = Drug accumulation in CD-1 mouse liver assessed as fold change in drug uptake at 10 mg/kg,po measured at 0.083 to 24 hrs post administration by LC-MS/MS analysis; type: ADME, organism-based; conditions: in vivo, time 0.083-24 hrs
[19] = Apparent volume of distribution at steady state in Sprague-Dawley rat at 2 mg/kg,iv measured at 0.083 to 24 hrs post administration by LC-MS/MS analysis; type: ADME, organism-based; conditions: in vivo, time 0.083-24 hrs, read-out: Vdss(app)
[20] = Half life in Sprague-Dawley rat at 2 mg/kg,iv measured at 0.083 to 24 hrs post administration by LC-MS/MS analysis; type: ADME, organism-based; conditions: in vivo, time 0.083-24 hrs
[21] = Cmax in Sprague-Dawley rat at 2 mg/kg,iv measured at 0.083 to 24 hrs post administration by LC-MS/MS analysis; type: ADME, organism-based; conditions: in vivo, time 0.083-24 hrs
[22] = AUCinfinity in Sprague-Dawley rat at 2 mg/kg,iv measured at 0.083 to 24 hrs post administration by LC-MS/MS analysis; type: ADME, organism-based; conditions: in vivo, time 0.083-24 hrs
[23] = Drug accumulation in Sprague-Dawley rat plasma assessed as fold change in drug uptake at 10 mg/kg,po measured at 0.083 to 24 hrs post administration by LC-MS/MS analysis; type: ADME, organism-based; conditions: in vivo, time 0.083-24 hrs
[24] = Drug accumulation in Sprague-Dawley rat liver assessed as fold change in drug uptake at 10 mg/kg,po measured at 0.083 to 24 hrs post administration by LC-MS/MS analysis; type: ADME, organism-based; conditions: in vivo, time 0.083-24 hrs

EC50 (Hepatitis B virus): 7.3 nM
SMILES: COc1cc2c(cc1OC)-c1cc(=O)c(C(=O)O)cn1[C@H](C(C)C)C2

EC50 (Hepatitis B virus): 39 nM
microsomal CLint at 0.3 µM [1]: 4 µL/min/mg
microsomal CLint at 0.3 µM [2]: 8 µL/min/mg
SMILES: COCCCOc1cc2c(cc1C)-c1cc(=O)c(C(=O)O)cn1[C@H](C(C)C)CO2
CC50 (HepG2 2.2.15): 39000 nM

EC50 (Hepatitis B virus): 780 nM
SMILES: COCCOc1cc2c(cc1Cl)-c1cc(=O)c(C(=O)O)cn1[C@@H](C(C)C)CO2
CC50 (HepG2 2.2.15): > 50000 nM

EC50 (Hepatitis B virus): 16 nM
microsomal CLint at 0.3 µM [1]: 1 µL/min/mg
SMILES: COCCCCOc1cc2c(cc1Cl)-c1cc(=O)c(C(=O)O)cn1[C@H](C(C)C)CO2
CC50 (HepG2 2.2.15): 43000 nM

EC50 (Hepatitis B virus): 53 nM
SMILES: COCCOc1cc2c(cc1Cl)-c1cc(=O)c(C(=O)O)cn1[C@H](C(C)C)CO2
CC50 (HepG2 2.2.15): > 50000 nM

EC50 (Hepatitis B virus): 76 nM
SMILES: COc1cc2c(cc1Cl)-c1cc(=O)c(C(=O)O)cn1C(C(C)C)CO2 (configuration not stated)
CC50 (HepG2 2.2.15): 46000 nM

EC50 (Hepatitis B virus): 3000 nM
SMILES: COCc1nc2c(s1)CC(C(C)C)n1cc(C(=O)O)c(=O)cc1-2 (configuration not stated)
CC50 (HepG2 2.2.15): > 50000 nM

EC50 (Hepatitis B virus): 21000 nM
SMILES: CC(C)C1Cc2sc(Cl)cc2-c2cc(=O)c(C(=O)O)cn21 (configuration not stated)
CC50 (HepG2 2.2.15): > 50000 nM

EC50 (Hepatitis B virus): 6 nM
SMILES: CCC1(C(C)C)Cc2cc(OCCCOC)c(OC)nc2-c2cc(=O)c(C(=O)O)cn21 (configuration not stated)
CC50 (HepG2 2.2.15): > 50000 nM

EC50 (Hepatitis B virus): 1 nM
clearance [3]: 29 mL/min/kg
half-life [4]: 3.7 h
Cmax [5]: 653 ng/mL
AUC(0-inf) [6]: 4360 ng·h/mL
bioavailability [7]: 92%
clearance [8]: 40 mL/min/kg
half-life [9]: 5.2 h
Cmax [10]: 274 ng/mL
AUC ([11]; po, 10 mg/kg): 1666 ng·h/mL
F ([12]; po, 10 mg/kg): 56%
Vd [13]: 4 L/kg
half-life [14]: 1.7 h
Cmax [15]: 834 ng/mL
AUC(0-inf) [16]: 914 ng·h/mL
fold change (FC) [17]: 4
fold change (FC) [18]: 41
Vd [19]: 3.1 L/kg
half-life [20]: 2.9 h
Cmax [21]: 1680 ng/mL
AUC ([22]; iv, 2 mg/kg): 1199 ng·h/mL
fold change (FC) [23]: 7.4
fold change (FC) [24]: 35
SMILES: COCCCOc1cc2c(nc1OC)-c1cc(=O)c(C(=O)O)cn1[C@](C)(C(C)(C)C)C2
CC50 (HepG2 2.2.15): 41000 nM

EC50 (Hepatitis B virus): 38 nM
microsomal CLint at 0.3 µM [1]: 1 µL/min/mg
SMILES: COc1cc2c(cc1Cl)-c1cc(=O)c(C(=O)O)cn1[C@H](C(C)C)CO2
CC50 (HepG2 2.2.15): > 50000 nM

EC50 (Hepatitis B virus): 19 nM
microsomal CLint at 0.3 µM [1]: 6 µL/min/mg
microsomal CLint at 0.3 µM [2]: 4 µL/min/mg
SMILES: CC(C)[C@@H]1COc2cc(OCCCO)c(Cl)cc2-c2cc(=O)c(C(=O)O)cn21
CC50 (HepG2 2.2.15): > 50000 nM

EC50 (Hepatitis B virus): 300 nM
SMILES: COc1cc2c(nc1OC)-c1cc(=O)c(C(=O)O)cn1[C@@H](C(C)C)C2
CC50 (HepG2 2.2.15): > 50000 nM

EC50 (Hepatitis B virus): 8 nM
clearance [3]: 55 mL/min/kg
half-life [4]: 4.5 h
Cmax [5]: 639 ng/mL
AUC(0-inf) [6]: 4160 ng·h/mL
bioavailability [7]: 136%
clearance [8]: 22 mL/min/kg
half-life [9]: 4.4 h
Cmax [10]: 965 ng/mL
AUC(0-inf) ([11]; Sprague-Dawley): 6480 ng·h/mL
bioavailability ([12]; Sprague-Dawley): 82%
Vd [13]: 4 L/kg
half-life [14]: 1.5 h
Cmax [15]: 470 ng/mL
AUC(0-inf) [16]: 615 ng·h/mL
fold change (FC) [17]: 0.1
fold change (FC) [18]: 1
Vd [19]: 2.7 L/kg
half-life [20]: 4.4 h
Cmax [21]: 1590 ng/mL
AUC(0-inf) ([22]; Sprague-Dawley): 1570 ng·h/mL
fold change (FC) [23]: 2.7
fold change (FC) [24]: 15
SMILES: COCCCOc1cc2c(nc1OC)-c1cc(=O)c(C(=O)O)cn1[C@](C)(C(C)C)C2
CC50 (HepG2 2.2.15): > 50000 nM

EC50 (Hepatitis B virus): 10000 nM
SMILES: COc1ccc(-c2cc(=O)c(C(=O)O)cn2CC(C)(C)C)cc1OC

EC50 (Hepatitis B virus): 3500 nM
SMILES: COc1cc2c(cc1Cl)-c1cc(=O)c(C(=O)O)cn1[C@@H](C(C)C)CO2
CC50 (HepG2 2.2.15): > 50000 nM

EC50 (Hepatitis B virus): 450 nM
SMILES: COCCCOc1cc2c([nH]c1=O)-c1cc(=O)c(C(=O)O)cn1[C@H](C(C)C)C2
CC50 (HepG2 2.2.15): > 50000 nM

From ChEMBL document CHEMBL5537169, “Structure-Activity Relationships and Discovery of (S)-6-Isopropyl-2-methoxy-3-(3-methoxypropoxy)-10-oxo-5,10-dihydro-6H-pyrido[1,2-h][1,7]naphthyridine-9-carboxylic Acid (AB-452), a Novel Orally Available HBV RNA Destabilizer” (J Med Chem, 2024)
